Experiment: xn = mol fraction of the nth substance listed
Settings: 101 kPa, Liquid

CCCCn1cc[n+](C)c1.[Cl-] [1-butyl-3-methylimidazolium chloride] + CO
mass density [kg/m3]
Settings	x1 = 0.0101	x1 = 0.0506	x1 = 0.1	x1 = 0.1665	x1 = 0.1951	x1 = 0.2398	x1 = 0.2991	x1 = 0.3771	x1 = 0.482
293.15 K	805.87	852.64	894.1	935.48	949.82	968.61	989.02	1010.45	1031.45
298.15 K	801.3	848.46	890.18	931.83	946.25	965.16	985.68	1007.23	1028.33
303.15 K	796.71	844.24	886.26	928.17	942.69	961.71	982.33	1004.01	1025.22
308.15 K	792.11	840.01	882.35	924.53	939.14	958.26	979.01	1000.8	1022.12
313.15 K	787.49	835.76	878.44	920.9	935.6	954.83	975.69	997.6	1019.03
318.15 K	782.83	831.56	874.52	917.27	932.06	951.4	972.38	994.41	1015.96

Source: the NIST ThermoML archive (doi:10.1021/je900733j)
